How the values were obtained:
[1] = target: T1, human CB2 receptor (Homo sapiens, UniProt P34972); assay: cell-based LANCE cAMP assay in CHO cells stably expressing CB2
[2] = test system: normal human mononuclear cells (PBMC); assay: cytotoxicity assay on human mononuclear cells; type: cell-based; settings: 72 h, PBMC from healthy donors
[3] = target: T1, human CB2 receptor; assay: [3H]CP-55,940 radioligand competition binding assay, CB2; settings: calculated as Ki(CB1)/Ki(CB2) ratio

T1 sequence (P34972 whole entry): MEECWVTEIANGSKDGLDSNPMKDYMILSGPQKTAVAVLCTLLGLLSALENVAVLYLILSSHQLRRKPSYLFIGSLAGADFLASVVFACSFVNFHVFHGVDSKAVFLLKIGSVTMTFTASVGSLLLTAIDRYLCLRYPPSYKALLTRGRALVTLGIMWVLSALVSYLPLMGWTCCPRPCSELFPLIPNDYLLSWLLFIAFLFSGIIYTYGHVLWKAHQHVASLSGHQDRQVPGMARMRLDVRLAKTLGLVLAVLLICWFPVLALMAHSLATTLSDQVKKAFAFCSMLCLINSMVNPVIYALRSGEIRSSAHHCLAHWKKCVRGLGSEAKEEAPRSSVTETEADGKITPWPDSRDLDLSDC

functional activity at CB2 [1]	SMILES	further results
inverse agonists	CN(C)c1ccc(C(NC(=O)Cc2ccccc2)NC(=O)Cc2ccccc2)cc1 [Compound 9, N,N′-((4-(Dimethylamino)phenyl)methylene)bis(2-phenylacetamide)]	–
CB2 inverse agonists	CC(C)c1ccc(C(NC(=O)Cc2ccccc2)NC(=O)Cc2ccccc2)cc1 [Compound 18, N,N′-((4-Isopropylphenyl)methylene)bis(2-phenylacetamide)]	–
CB2 inverse agonists	CCN(CC)c1ccc(C(NC(=O)Cc2ccccc2)NC(=O)Cc2ccccc2)cc1 [Compound 26, N,N′-((4-(Diethylamino)phenyl)methylene)bis(2-phenylaceta-mide)]	cytotoxic effects ([2]; 1 µM): did not show any cytotoxic effects; effects on cell viability ([2]; 10 µM): only slight effects on cell viability
CB2 inverse agonists	CCCN(CCC)c1ccc(C(NC(=O)Cc2ccccc2)NC(=O)Cc2ccccc2)cc1 [Compound 27, N,N′-((4-(Dipropylamino)phenyl)methylene)bis(2-phenylaceta-mide)]	–
CB2 inverse agonists	O=C(Cc1ccccc1)NC(NC(=O)Cc1ccccc1)c1ccc(N2CCCC2)cc1 [Compound 30, N,N′-((4-(Pyrrolidin-1-yl)phenyl)methylene)bis(2-phenylaceta-mide)]	–
–	O=C(Cc1ccc(Cl)cc1)NC(NC(=O)Cc1ccc(Cl)cc1)c1ccc(C(F)(F)F)cc1 [Compound 39, N,N′-((4-(Trifluoromethyl)phenyl)methylene)bis(2-(4-chlorophenyl)acetamide)]	SI: selectivity index for CB2 [3]: >198
CB2 inverse agonists	CCCCCC(=O)NC(NC(=O)CCCCC)c1ccc(N(CC)CC)cc1 [Compound 59, N,N′-((4-(Diethylamino)phenyl)methylene)dihexanamide]	–

From paper PMC3967745 (Journal of medicinal chemistry, 2012)
